Experiments:
barnyard grass = assay: Test Example 5: herbicidal effect by foliage application, plastic box (Table 20, symbol H); format: in vivo, barnyard grass (Echinochloa crus-galli); details: foliage application, 320 g/ha, 3 weeks after application
In short: (§1)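 Foliar spray test: emulsion formulation diluted in water to a set application rate, sprayed onto 14-day-old plants raised in diluvial soil at 25° C to 30° C under glass. Both herbicidal effect and crop effect rated visually three weeks later.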

chickweed = assay: Test Example 4: herbicidal effect by soil treatment (Table 19, symbol P); format: in vivo, common chickweed (Stellaria media); details: 320 g/ha
In short: (§2)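 Step 1: sow seeds in sterilized diluvial soil, cover ~1.5 cm. Step 2: spray diluted emulsion onto soil surface at predetermined rate. Step 3: greenhouse, 25–30° C, three weeks. Step 4: grade effect on each plant by earlier criteria.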

Italian ryegrass = assay: Test Example 4: herbicidal effect by soil treatment (Table 19, symbol K); format: in vivo, Italian ryegrass (Lolium multiflorum); details: 320 g/ha
In short: as §2

oval-leafed pondweed [1] = assay: Test Example 1: herbicidal activity, application before weed generation under submerged conditions (Table 16, symbol C); format: in vivo, oval-leafed pondweed (Monochoria vaginalis); details: 320 g/ha applied herbicide
In short: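 Emulsion formulation, water-diluted to set dose, was put onto the flooded surface (4 cm depth, alluvial soil) the same day weeds were sown and 2.5-leaf rice transplanted. After 3 weeks at 25-30 °C under glass, each species was rated 0 (≤5% kill) to 5 (≥90% kill).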

late watergrass = assay: Test Example 2: herbicidal activity, application during weed generation under submerged conditions (Table 17, symbol A); format: in vivo, late watergrass (Echinochloa oryzicola); details: AAH 320 g/ha; application during weed generation, submerged conditions
In short: (§3)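 Mixed weed seedlings in alluvial soil under a 4 cm water layer, greenhouse-grown at 25–30° C. Compound given as a diluted emulsion into the floodwater at the 1–2 leaf stage; response graded after three weeks.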

rice flat sedge = assay: Test Example 3: herbicidal effect by foliage application, Wagner pot (Table 18, symbol E); format: in vivo, rice flat sedge (Cyperus iria); details: 320 g/ha
In short: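 Plants were sown in alluvial soil held under 0.1–0.5 cm standing water and grown 14 days in a greenhouse at 25–30 °C. An emulsifiable formulation, water-diluted to the set dose, was then sprayed onto the foliage, and effects were scored three weeks later using previously defined criteria.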

green foxtail [2] = assay: Test Example 5: herbicidal effect by foliage application, plastic box (Table 20, symbol G); format: in vivo, green foxtail (Setaria viridis); details: foliage application, 320 g/ha, 3 weeks after application
In short: as §1

wild oat = assay: Test Example 4: herbicidal effect by soil treatment (Table 19, symbol I); format: in vivo, wild oat (Avena fatua); details: 320 g/ha
In short: as §2

blackgrass [3] = assay: Test Example 5: herbicidal effect by foliage application, plastic box (Table 20, symbol J); format: in vivo, blackgrass (Alopecurus myosuroides); details: foliage application, 320 g/ha, 3 weeks after application
In short: as §1

blackgrass [4] = assay: Test Example 4: herbicidal effect by soil treatment (Table 19, symbol J); format: in vivo, blackgrass (Alopecurus myosuroides); details: 320 g/ha
In short: as §2

persian speedwell = assay: Test Example 4: herbicidal effect by soil treatment (Table 19, symbol R); format: in vivo, Persian speedwell (Veronica persica); details: 320 g/ha
In short: as §2

green foxtail [5] = assay: Test Example 4: herbicidal effect by soil treatment (Table 19, symbol G); format: in vivo, green foxtail (Setaria viridis); details: 320 g/ha
In short: as §2

redroot pigweed = assay: Test Example 4: herbicidal effect by soil treatment (Table 19, symbol N); format: in vivo, redroot pigweed (Amaranthus retroflexus); details: 320 g/ha
In short: as §2

oval-leafed pondweed [6] = assay: Test Example 2: herbicidal activity, application during weed generation under submerged conditions (Table 17, symbol C); format: in vivo, oval-leafed pondweed (Monochoria vaginalis); details: AAH 320 g/ha; application during weed generation, submerged conditions
In short: as §3

Row | Compound | effect on barnyard grass (H) (barnyard grass) | herbicidal effect rating, P: chickweed (chickweed) | herbicidal effect rating, K: Italian ryegrass (Italian ryegrass) | Herbicidal effect on C: oval-leafed pondweed (grade 0-5) (oval-leafed pondweed [1]) | herbicidal effect rating, A: late watergrass (late watergrass) | herbicidal effect on E (rice flat sedge), rating 0-5 (rice flat sedge) | effect on green foxtail (G) (green foxtail [2]) | herbicidal effect rating, I: wild oat (wild oat) | effect on blackgrass (J) (blackgrass [3]) | herbicidal effect rating, J: blackgrass (blackgrass [4]) | herbicidal effect rating, R: persian speedwell (persian speedwell) | herbicidal effect rating, G: green foxtail (green foxtail [5]) | herbicidal effect rating, N: redroot pigweed (redroot pigweed) | herbicidal effect rating, C: oval-leafed pondweed (oval-leafed pondweed [6])
1 | CCCC(=O)Oc1c(C)nn(C)c(=O)c1-c1c(-c2ccc(COC)cc2)sc2ccc(F)cc12 [2-023] | 5 (Herbicidal rate of 90% or more (almost completely withered)) | 3 (Herbicidal rate of 40% or more and less than 70%) | 4 (Herbicidal rate of 70% or more and less than 90%) | 0 (Herbicidal rate of 5% or less (almost no effect)) | 3 (Herbicidal rate of 40% or more and less than 70%) | 5 (Herbicidal rate of 90% or more (almost completely withered)) | 5 (Herbicidal rate of 90% or more (almost completely withered)) | 0 (Herbicidal rate of 5% or less (almost no effect)) | 4 (Herbicidal rate of 70% or more and less than 90%) | 3 (Herbicidal rate of 40% or more and less than 70%) | 5 (Herbicidal rate of 90% or more (almost completely withered)) | 5 (Herbicidal rate of 90% or more (almost completely withered)) | 5 (Herbicidal rate of 90% or more (almost completely withered)) | 0 (Herbicidal rate of 5% or less (almost no effect))
2 | CCCC(=O)Oc1c(C)nn(C)c(=O)c1-c1c(-c2ccc(OC)cc2)sc2ccc(F)cc12 [2-027] | 5 (Herbicidal rate of 90% or more (almost completely withered)) | 4 (Herbicidal rate of 70% or more and less than 90%) | 4 (Herbicidal rate of 70% or more and less than 90%) | 4 (Herbicidal rate of 70% or more and less than 90%) | 3 (Herbicidal rate of 40% or more and less than 70%) | 5 (Herbicidal rate of 90% or more (almost completely withered)) | 4 (Herbicidal rate of 70% or more and less than 90%) | 2 (Herbicidal rate of 20% or more and less than 40%) | 2 (Herbicidal rate of 20% or more and less than 40%) | 0 (Herbicidal rate of 5% or less (almost no effect)) | 5 (Herbicidal rate of 90% or more (almost completely withered)) | 4 (Herbicidal rate of 70% or more and less than 90%) | 5 (Herbicidal rate of 90% or more (almost completely withered)) | 5 (Herbicidal rate of 90% or more (almost completely withered))
3 | CCOc1ccc(-c2sc3ccc(F)cc3c2-c2c(O)c(C)nn(C)c2=O)cc1 [2-030] | 5 (Herbicidal rate of 90% or more (almost completely withered)) | 3 (Herbicidal rate of 40% or more and less than 70%) | 0 (Herbicidal rate of 5% or less (almost no effect)) | 0 (Herbicidal rate of 5% or less (almost no effect)) | 0 (Herbicidal rate of 5% or less (almost no effect)) | 5 (Herbicidal rate of 90% or more (almost completely withered)) | 2 (Herbicidal rate of 20% or more and less than 40%) | 0 (Herbicidal rate of 5% or less (almost no effect)) | 0 (Herbicidal rate of 5% or less (almost no effect)) | 0 (Herbicidal rate of 5% or less (almost no effect)) | 5 (Herbicidal rate of 90% or more (almost completely withered)) | 0 (Herbicidal rate of 5% or less (almost no effect)) | 4 (Herbicidal rate of 70% or more and less than 90%) | 0 (Herbicidal rate of 5% or less (almost no effect))
4 | CCCC(=O)Oc1c(C)nn(C)c(=O)c1-c1c(-c2ccc(OCC)cc2)sc2ccc(F)cc12 [2-031] | 4 (Herbicidal rate of 70% or more and less than 90%) | 1 (Herbicidal rate of 5% or more and less than 20%) | 0 (Herbicidal rate of 5% or less (almost no effect)) | 4 (Herbicidal rate of 70% or more and less than 90%) | 4 (Herbicidal rate of 70% or more and less than 90%) | 4 (Herbicidal rate of 70% or more and less than 90%) | 2 (Herbicidal rate of 20% or more and less than 40%) | 0 (Herbicidal rate of 5% or less (almost no effect)) | 0 (Herbicidal rate of 5% or less (almost no effect)) | 0 (Herbicidal rate of 5% or less (almost no effect)) | 4 (Herbicidal rate of 70% or more and less than 90%) | 2 (Herbicidal rate of 20% or more and less than 40%) | 4 (Herbicidal rate of 70% or more and less than 90%) | 3 (Herbicidal rate of 40% or more and less than 70%)
5 | CCCOc1ccc(-c2sc3ccc(F)cc3c2-c2c(OC(=O)CCC)c(C)nn(C)c2=O)cc1 [2-033] | 5 (Herbicidal rate of 90% or more (almost completely withered)) | 4 (Herbicidal rate of 70% or more and less than 90%) | 0 (Herbicidal rate of 5% or less (almost no effect)) | 4 (Herbicidal rate of 70% or more and less than 90%) | 1 (Herbicidal rate of 5% or more and less than 20%) | 5 (Herbicidal rate of 90% or more (almost completely withered)) | 5 (Herbicidal rate of 90% or more (almost completely withered)) | 0 (Herbicidal rate of 5% or less (almost no effect)) | 3 (Herbicidal rate of 40% or more and less than 70%) | 0 (Herbicidal rate of 5% or less (almost no effect)) | 4 (Herbicidal rate of 70% or more and less than 90%) | 0 (Herbicidal rate of 5% or less (almost no effect)) | 5 (Herbicidal rate of 90% or more (almost completely withered)) | 4 (Herbicidal rate of 70% or more and less than 90%)
